In PubChem BioAssay (NCI):
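Grown in 96-well plates, cells were treated for 48 hours with each compound at five concentrations. Insufficient inhibition: endpoint recorded as highest concentration tested. Abbreviation: GI50, concentration required for 50% inhibition of growth. TGI: concentration producing complete growth inhibition.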

Columns and labels:
Test in all cases: DTP human tumour cell line panel, 48 h
786-0 renal = tested on: 786-0 renal
A498 renal = tested on: A498 renal
A549 NSCLC = tested on: A549 NSCLC
HCC-2998 colon = tested on: HCC-2998 colon
HCT-116 colon = tested on: HCT-116 colon
HCT-15 colon = tested on: HCT-15 colon
IGROV1 ovarian = tested on: IGROV1 ovarian
MDA-N = tested on: MDA-N
NCI/ADR-RES ovarian = tested on: NCI/ADR-RES ovarian
PC-3 prostate = tested on: PC-3 prostate
RPMI-8226 leukemia = tested on: RPMI-8226 leukemia
SK-MEL-2 melanoma = tested on: SK-MEL-2 melanoma
T-47D breast = tested on: T-47D breast
UACC-257 melanoma = tested on: UACC-257 melanoma
MCF7 breast = tested on: MCF7 breast
SR leukemia = tested on: SR leukemia

Compound	TGI (786-0 renal) [µM]	TGI (A498 renal) [µM]	TGI (A549 NSCLC) [µM]	TGI (HCC-2998 colon) [µM]	TGI (HCT-116 colon) [µM]	TGI (HCT-15 colon) [µM]	TGI (IGROV1 ovarian) [µM]	TGI (MDA-N) [µM]	TGI (NCI/ADR-RES ovarian) [µM]	TGI (PC-3 prostate) [µM]	TGI (RPMI-8226 leukemia) [µM]	TGI (SK-MEL-2 melanoma) [µM]	TGI (T-47D breast) [µM]	TGI (UACC-257 melanoma) [µM]	TGI (MCF7 breast) [µM]	TGI (SR leukemia) [µM]	GI50 (A549 NSCLC) [µM]	GI50 (HCT-15 colon) [µM]	GI50 (SR leukemia) [µM]
O=C(Cn1c2ccc(Br)cc2c2nc3ccccc3nc21)N1CCOCC1	> 100	> 100	> 100	> 100	> 100	> 100	> 100	> 100	> 100	> 100	> 100	> 100	> 100	> 100					
Nc1nc(N)c2c(-c3ccccc3)ccnc2n1	> 100	> 100		> 100	> 100		> 100	> 100		> 100	> 100	> 100		> 100	> 100	> 100			
Cc1cc(N(CCC#N)CCC#N)ccc1/C=C(\N=[N+]=[N-])C(=O)NC(=O)COc1ccccc1	> 100	> 100	> 100	> 100	> 100	> 100	> 100				> 100	> 100		> 100		> 100			
C/C(CC(=O)Nc1cccc([N+](=O)[O-])c1)=N/NC(N)=S	> 100		> 100	> 100	> 100		> 100				> 100	> 100		> 100					
CC(=O)Oc1ccc(C)c2c1[C@H]1CC[C@]3(C)[C@@H](OC(C)=O)CC[C@H]3[C@@H]1CC2	39.4	31.4	50.8	32.8	31.2	35.2	36.4	36.8	40.4		49.4		40.6	35.6	38.9	> 100			
C=C1C(=O)O[C@H]2C1C[C@H](O)/C(C)=C/CC[C@@]1(C)O[C@H]21 (stereo not given in full)	32.8		> 100	27.5	28.6	31.1	28.3	30.3	33.7		31.5	39.9		34.5	27.6	30.9			
CN(C)C1(N(C)C)Oc2c(c(=O)n(C)c(=O)n2C)C(c2ccc(F)cc2)C1(F)F (stereo not given)	> 100	> 100	> 100	> 100	> 100	> 100			> 100	> 100	> 100	> 100	> 100	> 100	> 100				
N#C/C(=C\c1ccccc1F)C(=O)c1ccccc1	> 100	> 100	> 100	> 100	> 100	> 100	> 100				> 100	> 100		> 100		> 100			
CCOC(=O)C1=C(C)C2C3C(=O)OC(=O)C3C1(C)C1C(=O)OC(=O)C21 (stereo not given)	> 100	> 100	> 100	> 100	> 100	> 100	> 100				> 100	> 100		> 100					
CC1=NC(=O)CNN1C1=NNC2(C(=O)N1)c1ccccc1-c1ccccc12	> 100	> 100	> 100	> 100	> 100	> 100	> 100	> 100	> 100	> 100		> 100		> 100	> 100	> 100			
CC(C)(Cl)C(Cl)CC/C(CBr)=C(\Cl)CBr (stereo not given)	2.68	> 58.2	30.3	21.6	5.89	3.51	3.66	3.65	7.9	8.56		3.28		5.09	6.97				
O=C(O)C1Cc2[nH]c3ccccc3c2C2CCCC12 (stereo not given)	> 100	> 100	> 100	> 100	> 100	> 100	> 100					> 100		> 100		> 100			
CC(C)(C)C1CCC2c3c([nH]c4ccccc34)C3C(=O)N(c4cc(Cl)ccc4Cl)C(=O)C3C2C1 (stereo not given)	> 100	> 100	> 100	> 100	> 100	> 100	> 100	> 100	> 100	> 100	> 100	> 100		> 100	> 100				
Cc1nc2c(n1Cc1ccc(F)cc1)C(=O)c1ccccc1C2=O	> 100		> 100	> 100	> 100	> 100	> 100					> 100		> 100		> 100			
O=S1(=O)OCCOS(=O)(=O)C1(Br)Br	> 100		> 100	> 100	> 100						> 100	> 100		> 100		> 100			
COc1cc(Cn2c3ccccc3c3cc(C)cc(OC)c32)cc2c1[nH]c1ccccc12	> 25		> 25	> 25	> 25	> 25	> 25				> 25	> 25				> 25	23.2	16.8	16.6
COc1cc2cnc3c4cc(O)ccc4ccc3c2cc1OC	> 100		> 100	> 100	> 100	> 100	> 100				> 100	87.2		> 100		> 100			
COc1ccccc1/C=C1\CCC(CN2CCOCC2)C1=O (stereo not given)	8.53	32.4	45	28.3	22.9	12.3	29.3	26.9	35.8	30		32.2		23.9	21.8	5.7			

Compound	TGI (786-0 renal) [µM]	TGI (A498 renal) [µM]	TGI (A549 NSCLC) [µM]	TGI (HCC-2998 colon) [µM]	TGI (HCT-116 colon) [µM]	TGI (HCT-15 colon) [µM]	TGI (IGROV1 ovarian) [µM]	TGI (MDA-N) [µM]	TGI (NCI/ADR-RES ovarian) [µM]	TGI (PC-3 prostate) [µM]	TGI (RPMI-8226 leukemia) [µM]	TGI (SK-MEL-2 melanoma) [µM]	TGI (T-47D breast) [µM]	TGI (UACC-257 melanoma) [µM]	TGI (MCF7 breast) [µM]	TGI (SR leukemia) [µM]	GI50 (A549 NSCLC) [µM]	GI50 (HCT-15 colon) [µM]	GI50 (SR leukemia) [µM]
O=C1Nc2n[nH]c(=S)n2NC12c1ccccc1-c1ccccc12	> 100	> 100	> 100	> 100	93.6	> 100	> 100	> 100	> 100	> 100		> 100		48.4	> 100	> 100			
CN(CCO)c1nc(=O)c2c(n1C1OC(CO)C(O)C(O)C1O)CCCC2 (stereo not given)	> 100		> 100	> 100	> 100	> 100	> 100				> 100	> 100		> 100		> 100			
O=C(OCC1CC(C2(O)CCCCC2)C(=O)O1)c1ccccc1 (stereo not given)	> 100	> 100	> 100	> 100	> 100	> 100	> 100		> 100	> 100	> 100	> 100		> 100	> 100	> 100			
CC(C)OP(=O)(OC(C)C)/C(=N/Nc1ccc([N+](=O)[O-])cc1)NNC(=O)c1ccccc1	> 100		> 100	70.4	> 100	> 100					> 100	> 100		> 100		50.9			
C[C@H]1[C@H](C)CC[C@]2(C(=O)O)CCC3(COC(=O)/C=C/c4ccc(O)cc4)C(=CCC4[C@@]5(C)CC[C@H](O)C(C)(C)C5CC[C@]43C)[C@H]12 (stereo not given in full)	16	15.3	10.3	18.2	14.2	15.7	15.4				49.8	43.2		31.5		64.3			
O=C(/C=C/c1ccc(Cl)cc1)c1nc2ccccc2[nH]1	29.6	> 100	> 100	25.8	36.3	61.4	> 100		> 100	> 100	5.18	> 100	38.9	> 100	9.04				
CC1=C(N2CC2)C(=O)C(C)=C(N2CC2)C1=O	0.622	0.403	75.7	0.362	19.3	3.31	1.31	2.9	0.0574		9.8	1.39	15.5	2.77	1.46	5.72			
CC(/C=C1\CCC(CN(C)C)C1=O)c1cccc(Br)c1 (stereo not given)	12.3	> 58.5	> 96.2	35.9	31	34	19.4				6.08	30.5		31.6					
COc1c(N2CCCCC2)c2c(=O)c3ccccc3oc2c2c3ccccc3n(C)c12	> 100		> 100	> 100	> 100	> 100		> 100	> 100	> 100	> 100	> 100		> 100	> 100				
O=C(Nc1ccccc1)c1cc2cc(CCl)ccc2oc1=O	> 100	26.1	> 100	> 100	> 100	> 100	> 100		> 100	> 100	> 100	> 100	> 100	> 100	82.9	> 100			
COc1ccccc1NC(=O)C(=O)C(c1cnc2ccc([N+](=O)[O-])cc2n1)[N+](=O)[O-] (stereo not given)	> 100	> 100	> 100	> 100	> 100	> 100	> 100				> 100	> 100		> 100		> 100			
O=C(O)CCC1(CCC(=O)O)CCCCCCCCC(CCC(=O)O)(CCC(=O)O)C(=O)C1=O	> 100		> 100	> 100	> 100	> 100			> 100	> 100	> 100	> 100	> 100	> 100	> 100	> 100			
CC(C)(CN1CCCCC1)C(=O)CC(SCCS(=O)(=O)O)c1ccccc1 (stereo not given)	25.4	32.1	> 100	41.8	18.2	42.9	> 100	34.6	70.6	77.1	46.9	96.5			33.4	13.9			
N#Cc1c2c(c(Nc3cccc(C(F)(F)F)c3)n3c1nc1ccccc13)CCCC2	27.9	94.9			> 100	> 100		56.7	51.8		> 100		> 100	> 100					
COc1cc2c(c(OC)c1)C(=O)C(=O)C(CC1(C)OCCCO1)=C2	22	31.3	28.3	30.1	10.3	17	27.8				> 100	30.3		27.4					
Cc1cc2nc3c(C#N)c4c(c(Cl)n3c2cc1C)CCC4	29.5	> 100			29.6	37.1			46.2		51		> 100	> 100					
O=C1/C(=C/c2cccc([N+](=O)[O-])c2)Cc2ccccc21	> 100		> 100		> 100	> 100	> 100	> 100	> 100	> 100	> 100	> 100		> 100	> 100	> 100			
CC(Cn1c(=O)oc2ccccc21)N(C)C (stereo not given)	> 100	> 100			> 100	> 100	> 100	> 100	> 100	> 100	> 100	> 100		> 100	> 100	> 100			
